Test results published in patent US5872126A, “Methods and compositions for treating preterm labor” (priority 1997, dated 1999).
Several values for one entry are separate records, joined by “and”; a condition that tells them apart may be missing. Equal values may be shown once. Entries after “also recorded” stand apart in the source; their conditions may differ.

Assays:
Type in all cases: in vivo, Sprague-Dawley rat
parturition in the rat [1] = assay: Effect of test compound on parturition in the rat, dosed GD 6 through LD 20 (Example 1); details: for Mean Length of Gestation ± SD: oral gavage
From the text: Effect of the 5α-reductase type 1 inhibitor 3-oxo-4-aza-4,7β-dimethyl-16β-(4-chlorophenoxy)-5α-androstane on parturition in the rat
Fifty female Sprague-Dawley rats (Charles River Laboratories, Raleigh, N.C.) approximately 11 weeks old, weighing from 211 to 297 grams were assigned to the present study. The female rats were housed singly in stainless steel hanging cages prior to and after cohabitation with a male of the same strain. During cohabitation, females were caged with untreated males of the same strain in a ratio of 1 female: 1 male. On Gestational Day (GD) 15 to 17, females were transferred to individual clear polycarbonate boxes containing Beta-Chip bedding in preparation for delivery and in which they remained with their litters throughout the lactation period. Room temperature was maintained between 19.4° and 25.0° C.; room humidity was maintained between 40 and 60% relative humidity, and room lights were set for alternating 12-hour periods of light and dark throughout the study. All rats had free access to PMI Certified Rodent Diet #5002 and tap water throughout the study.
Vehicle consisted of 0.5% methylcellulose in deionized water with […] sodium laurel sulfate (SLS) and was prepared on a weekly basis and refrigerated when not in use.
The high dose formulation of 3-oxo-4-aza-4,7β-dimethyl-16β-(4-chlorophenoxy)-5α-androstane ("test compound") (4 mg/mL, in vehicle) was prepared on a weekly basis and was refrigerated when not in use. All lower does formulations (0.5, 1.0 and 2.0 mg/mL) were prepared on a daily basis by diluting the high dose preparation with the vehicle. Ten females were randomly allocated to each of the following treatment groups: Control, 2.5 mg test compound/kg/day, 5.0 mg test compound/kg/day, 10 mg test compound/kg/day, 20 mg test compound/kg/day. The formulation was administered by oral gavage in a dosage volume of 5 ml/kg based on the most recent body weight. Females were treated once daily with the dose above from GD 6 through LD (lactation day) 20.
Each female was housed with one untreated male of the same strain. […] The day of finding the plugs and/or sperm was considered GD 0.
From GD21 until the completion of delivery (LD 0), each pregnant female was observed on four occasions throughout the day. On GD 24, females were observed twice at 7:30 am and 10:00 am. The onset and completion of delivery and any signs of difficulty in parturition were noted. Those females that had completed delivery at the first observation of the day were assigned a whole day value for the length of gestation (e.g. 21.0 or 22.0 days). Those females that completed delivery during the workday were assigned a half day value (e.g. 21.5 or 22.5 days).

parturition in the rat [2] = assay: Parturition with test compound and progesterone antagonist RU-486 (Example 3); details: test compound 20 mg/kg/day (Group 3)
Procedure: (§1) In order to determine if the effects in the experiments conducted in Examples 1 and 2 were due to decreased progesterone catabolism associated with inhibition of 5α-reductase by the 5α-reductase type 1 inhibitor 3-oxo-4-aza-4,7β-dimethyl-16β-(4-chlorophenoxy)-5α-androstane ("test compound"), the following study was performed with the 5α-reductase inhibitor 3-oxo-4-aza-4,7β-dimethyl-16β-(4-chlorophenoxy)-5α-androstane and the progesterone antagonist RU-486.
(§2) Fifty-six pregnant female Sprague-Dawley rats (Charles River Laboratories, Raleigh, N.C.), approximately 10.5 weeks old weighing from 212 to 319 grams were employed in the study. They were fed and housed as described in EXAMPLE 1. The females were assigned to the following groups based on a weight independent random allocation scheme:
Control (Control article)
test compound @ 20 mg/kg/day
(§3) A dose of 10 mg/kg off RU-486 was selected based on the studies of Abdellilah et al., Progesterone and Mifepristone modify principally the response of circular myometrium to oxytocin in preparturient rats: comparison with response to acetylcholine and to calcium J. Pharmacol. and Exp. Therp.
(§4) The drugs were administered by oral gavage. The control article and vehicle consisted of 0.5% methylcellulose in deionized water with 0.02% sodium lauryl sulfate (SLS) and were prepared on a weekly basis and refrigerated when not in use. The test compound formulation (4 mg/mL, in vehicle) was prepared on a weekly basis and was refrigerated when not in use. The RU-486 formulation (2 mg base compound/mL, in 0.5% methylcellulose in deionized water) was prepared on a daily basis.

serum progesterone = assay: Serum progesterone in pregnant rats (Example 3); details: 20 mg/kg/day
Procedure: as §1, §2, §3, §4

How did the “number of females completing parturition” value (parturition in the rat [1]; 2.5 mg/kg/day, delivery day GD 22.0) turn out when `C[C@H]1C[C@H]2N(C)C(=O)CC[C@]2(C)[C@H]2CC[C@]3(C)C[C@@H](Oc4ccc(Cl)cc4)C[C@H]3[C@H]12` [test compound, 3-oxo-4-aza-4,7β-dimethyl-16β-(4-chlorophenoxy)-5α-androstane] was run?
The value was 2.

And the “number of females completing parturition” value (parturition in the rat [1]; 2.5 mg/kg/day, delivery day GD 22.5)?
The value was 7.

And the “Mean Length of Gestation ± SD” value (parturition in the rat [1]; 2.5 mg/kg/day)?
Its value is 22.8 ± 0.4 days.

And the “Sacrificed GD 24 due to failure to initiate or complete parturition” value (shortened to “Sacrificed GD 24 due to failure”) (parturition in the rat [1]; 5.0 mg/kg/day)?
The value was 3.

What about the “number of females completing parturition” value (parturition in the rat [1]; 5.0 mg/kg/day, delivery day GD 22.0) of the same molecule?
The value was 2.

And the “number of females completing parturition” value (parturition in the rat [1]; 5.0 mg/kg/day, delivery day GD 22.5)?
Its value is 2.

And the “number of females completing parturition” value (parturition in the rat [1]; 5.0 mg/kg/day, delivery day GD 23.0)?
The value was 2.

What about the “Mean Length of Gestation ± SD” value (parturition in the rat [1]; 5.0 mg/kg/day) of the same molecule?
Its value is 22.7 ± 0.7 days.

And the “Sacrificed GD 24 due to failure” value (parturition in the rat [1]; 10.0 mg/kg/day)?
The value was 3.

What about the “number of females completing parturition” value (parturition in the rat [1]; 10.0 mg/kg/day, delivery day GD 22.5) of the same molecule?
The value was 2.

And the “number of females completing parturition” value (parturition in the rat [1]; 10.0 mg/kg/day, delivery day GD 23.0)?
Its value is 3.

And the “Mean Length of Gestation ± SD” value (parturition in the rat [1]; 10.0 mg/kg/day)?
Its value is 22.8 ± 0.3 days.

And the “Sacrificed GD 24 due to failure” value (parturition in the rat [1]; 20 mg/kg/day)?
The value was 6.

And the “number of females completing parturition” value (parturition in the rat [1]; 20 mg/kg/day, delivery day GD 22.5)?
Its value is 1.

And the “number of females completing parturition” value (parturition in the rat [1]; 20 mg/kg/day, delivery day GD 23.0)?
The value was 3.

What about the “Mean Length of Gestation ± SD” value (parturition in the rat [1]; 20 mg/kg/day) of the same molecule?
Its value is 22.9 ± 0.2 days.

What about the “failure to initiate or complete parturition” value (parturition in the rat [1]; 5, 10 and 20 mg/kg/day) of the same molecule?
The value was “treatment related increases in the failure to initiate or complete parturition; also recorded: drug-related increases in the incidence of females that failed to initiate or complete parturition”.

What about the “length of gestation” value (parturition in the rat [1]; all drug-treated groups, 2.5-20 mg/kg/day) of the same molecule?
Its value is “treatment-related increases in the length of gestation”.

And the “number of females completing parturition” value (parturition in the rat [2]; delivery day GD 22.0)?
The value was 1.

And the “number of females completing parturition” value (parturition in the rat [2]; delivery day GD 23.0)?
Its value is 2.

And the “number of females completing parturition” value (parturition in the rat [2]; delivery day GD 24)?
The value was 3.

And the “Sacrificed Early (on GD 24 due to failure to initiate or complete parturition)” value (parturition in the rat [2])?
The value was 7.

And the “females that failed to initiate or complete parturition” value (parturition in the rat [2])?
Its value is “drug related increase in females that failed to initiate or complete parturition”.

What about the “Mean Length of Gestation ± SD” value (parturition in the rat [2]; only females completing delivery, 20 mg/kg/day) of the same molecule?
The value was 23.3 days and 23.3 ± 0.8 days.

What about the “mean serum progesterone, times above control group 1” value (“mean serum progesterone” for short) (serum progesterone; GD 15) of the same molecule?
Its value is “approximately 1.6 times”.

What about the “mean serum progesterone” value (serum progesterone; GD 17) of the same molecule?
The value was ~1.4 times.

What about the “mean serum progesterone” value (serum progesterone; GD 19) of the same molecule?
The value was “approximately 1.6 times”.

What about the “mean serum progesterone” value (serum progesterone; GD 21) of the same molecule?
Its value is ~3.3 times.

And the “correlation of individual serum progesterone values on GD 21 and failure to initiate or complete parturition” value (serum progesterone; Group 3)?
Its value is “positive correlation”.
